Measurements: US9012458B2, “Antitumor agent using compounds having kinase inhibitory effect in combination” (Eisai R&D Management Co., Ltd., priority 2010, dated 2015)
Where a name gives a salt, the structure may show the parent alone.

Tested on: human glioblastoma cell line (U87MG)
Experiment: Combined effect in model animal transplanted with human glioblastoma cell line (U87MG)
Type: in vivo
Conditions: U87MG s.c. in nude mouse, Compound A 10 mg/kg, Compound B 100 mg/kg, oral once daily, average ± standard deviation
Experimental: The human glioblastoma cell line (U87MG) (ATCC) was cultured using a 10% FBS-containing E-MEM medium (SIGMA) in a 5% CO2 incubator under the condition of 37° C. When the cells reached a state of approximately 80% confluency, the cells were collected using trypsin-EDTA. To these cells, a Hanks' Balanced Salt Solution containing 50% Matrigel was added to prepare a suspension at a concentration of 5.0×10^7 cells/mL. The cell suspension thus obtained was subcutaneously transplanted at the lateral side of the body of a nude mouse (CAnN.Cg-FOXn1nu/CrlCrlj, Charles River Laboratories Japan, Inc.) in an amount of 0.1 mL, where each group contained six mice. Compound A (10 mg/kg, once daily, for 21 days) and Compound B (100 mg/kg, once daily, for 21 days) were orally administered, either individually or both in a row.
Setting the initial day of administration at Day 0, the major axis and the minor axis of a tumor developed in each mouse were measured using Digimatic caliper (Mitsutoyo Corporation) thereafter on Day 2, 5, 7, 9, 12, 14, 16, 19, and 21.
The tumor volume and the relative tumor volume were calculated according to the equations below. TV=major axis (mm)×minor axis^2 (mm^2)/2 RTV=TV on the day of measurement/TV on the initial day of administration

Row | SMILES | RTV (relative tumor volume) Day 2 | RTV (relative tumor volume) Day 5 | RTV (relative tumor volume) Day 7 | RTV (relative tumor volume) Day 9 | RTV (relative tumor volume) Day 12 | RTV (relative tumor volume) Day 14 | RTV (relative tumor volume) Day 16 | RTV (relative tumor volume) Day 19 | RTV (relative tumor volume) Day 21
1 | COc1cc2nccc(Oc3ccc(NC(=O)NC4CC4)c(Cl)c3)c2cc1C(N)=O [Compound A, 4-(3-chloro-4-(cyclopropylaminocarbonyl)aminophenoxy)-7-methoxy-6-quinolinecarboxamide mesylate] | 0.95 ± 0.08 | 1.27 ± 0.07 | 1.59 ± 0.16 | 1.85 ± 0.13 | 3.29 ± 0.32 | 4.76 ± 0.49 | 6.19 ± 0.95 | 9.60 ± 1.99 | 11.53 ± 2.57
2 | CN1CCN(C2CCN(C(=O)Nc3cc(Oc4ccc(NC(=O)C5(C(=O)Nc6ccc(F)cc6)CC5)c(F)c4)ccn3)CC2)CC1 [Compound B, N-(2-fluoro-4-{[2-({[4-(4-methylpiperazin-1-yl)piperidin-1-yl]carbonyl}amino)pyridin-4-yl]oxy}phenyl)-N′-(4-fluorophenyl)cyclopropane-1,1-dicarboxamide tartrate] | 0.69 ± 0.05 | 0.61 ± 0.05 | 0.56 ± 0.10 | 0.57 ± 0.07 | 0.65 ± 0.08 | 0.73 ± 0.12 | 0.93 ± 0.13 | 1.65 ± 0.37 | 2.23 ± 0.51
